The MTD is the highest dose tested that stayed within the study's limit of toxicity. Low readings indicate a narrow tolerated range, high ones a wide tolerated range.

The nature of series [1]: Maximum tolerated dose in nude mice. Particulars: mouse, in vivo, intravenous, free bodies. On the procedure: FaDu (obtained from the American Type Culture Collection), which is a human pharyngeal squamous cell carcinoma line, was cultured and grown in a 10% bovine fetal serum-containing MEM culture. The cells were separated from the flask using 0.05% Trypsin-EDTA solution and collected. After washing with PBS, the cells were suspended in PBS so as to be 5×10^7 cells/mL and kept on ice. 0.1 mL of cell suspension liquid were subcutaneously injected in the right ventral portion of 6-week old nude mice (Charles River Laboratories Japan, Inc.). Each mouse was observed daily, and notes were made appropriately in cases where abnormal conditions were found. Calipers were used to measure the tumor size over time, and the tumor size was calculated based on the calculation formula: major axis×(minor axis squared)÷2. […]
ACHN (obtained from the American Type Culture Collection), which is a human renal cancer cell line, was cultured and grown in a 10% bovine fetal serum-containing MEM culture. […] Calipers were used to measure the tumor size over time, and the tumor size was calculated based on the calculation formula: major axis×(minor axis squared)÷2. […]

Series [2] has as its system ACHN human renal cancer cell line. As to the kind of experiment: In vivo antitumor activity in ACHN cancer-bearing nude mice. Particulars: free body, 2 mg/kg, 3 mg/kg and 4 mg/kg, 45 days after the start of sample administration, FIG. 3. On the procedure:
ACHN (obtained from the American Type Culture Collection), which is a human renal cancer cell line, was cultured and grown in a 10% bovine fetal serum-containing MEM culture. The cells were separated from the flask using 0.05% Trypsin-EDTA solution and collected. After washing with PBS, the cells were suspended in PBS so as to be 5×10^7 cells/mL and then kept on ice. 0.1 mL of cell suspension liquid were subcutaneously injected in the right ventral portion of 6-week old nude mice (Charles River Laboratories Japan, Inc.). Each mouse was observed daily, and notes made appropriately in cases where abnormal conditions were found. Calipers were used to measure the tumor size over time, and the tumor size was calculated based on the calculation formula: major axis×(minor axis squared)÷2. At the point when the tumor size was 150 to 200 mm^3, the mice were separated into groups such that the average values of the tumor sizes and the body weights of mice were uniform among the test groups (five mice per test group), and the drug was administered into the caudal vein (0.2 mL/20 g; 3 times in 7-day intervals).

The subject of series [3] is FaDu human pharyngeal squamous cell carcinoma line. Briefly: In vivo antitumor activity in FaDu cancer-bearing nude mice. Particulars: free bodies, 4 mg/kg, caudal vein, 3 times in 7-day intervals, FIG. 2. On the procedure: FaDu (obtained from the American Type Culture Collection), which is a human pharyngeal squamous cell carcinoma line, was cultured and grown in a 10% bovine fetal serum-containing MEM culture. The cells were separated from the flask using 0.05% Trypsin-EDTA solution and collected. After washing with PBS, the cells were suspended in PBS so as to be 5×10^7 cells/mL and kept on ice. 0.1 mL of cell suspension liquid were subcutaneously injected in the right ventral portion of 6-week old nude mice (Charles River Laboratories Japan, Inc.). Each mouse was observed daily, and notes were made appropriately in cases where abnormal conditions were found. Calipers were used to measure the tumor size over time, and the tumor size was calculated based on the calculation formula: major axis×(minor axis squared)÷2. At the point when the tumor size was 100 to 200 mm^3, the mice were separated into groups such that the average values of the tumor sizes and the mouse body weights were uniform among the test groups (five mice per test group), and the drug was administered into the caudal vein (0.2 mL/20 g; 3 times in 7-day intervals).

Where a name gives a salt, the structure may show the parent alone.

In the case of `C=C1C[C@@H]2CC[C@@]34C[C@H]5O[C@H]6[C@@H](O3)[C@H]3O[C@H](CC[C@@H]3O[C@H]6[C@H]5O4)CC(=O)C[C@@H]3[C@@H](OC)[C@@H](C[C@H](O)CN)O[C@H]3C[C@H]3O[C@@H](CC[C@@H]1O2)C[C@@H](C)C3=C` [Eribulin mesylate, eribulin mesylate], the MTD in series [1] stood at 4 mg/kg. The “Tumor volume versus non-treated group” value in series [2] is given as “no significant difference was found”. Besides, in series [3], the “Tumor-reducing effect (average tumor volume)” value was “a tumor-reducing effect was not obtained”.
